Test results reported in patent publication US20060025344A1, “Ghrelin receptor inverse agonists for regulation of feeding behaviors” (7TM Pharma A/S, priority 2002, published 2006).
Entries after “also recorded” stand apart in the source; their conditions may differ. Non-standard residues stand in square brackets, D forms with d. Residues, ends and D or L forms follow the SMILES beside them.

How the values were obtained:
human ghrelin receptor = human ghrelin receptor (Homo sapiens, UniProt Q92847); test: Inverse agonism on basal, constitutive signalling measured by inositol phosphate turnover in transiently transfected COS-7 cells; format: cell-based; settings: wild-type ghrelin receptor; for IC50: IP turnover
Procedure: Cells were transfected with Lipofectamine 2000 (Life Technologies).
(§1) Cells were washed twice in buffer, 20 mM HEPES, pH 7.4, supplemented with 140 mM NaCl, 5 mM KCl, 1 mM MgSO4, 1 mM CaCl2, 10 mM glucose, 0.05% (w/v) bovine serum; and were incubated in 0.5 ml buffer supplemented with 10 mM LiCl at 37 °C. for 30 min. […] Determinations were made in duplicates.

[1] = molecular target: metal-ion site engineered ghrelin receptor (V:01 and V:05 substituted with His) (Homo sapiens, UniProt Q92847, L209H/M213H); test: Inverse agonism on basal inositol phosphate turnover in the metal-ion site engineered receptor; format: cell-based
Procedure: as §1
Metal-ion site engineering has previously been used as a molecular probe for both antagonism, agonism and inverse agonism (Elling et al., 1995; Elling et al., 1999; Rosenkilde et al., 1999). Here we built a metal-ion binding site into the ghrelin receptor by substituting residues V:01 and V:05 with His residues. 125 l-ghrelin bound with normal high affinity to the metal-ion site engineered receptor and ghrelin could stimulate IP turnover with a potency and efficacy as in the wild-type receptor (data not shown). […] A similar result has been obtained in the HHV8 encoded constitutively active ORF-74 receptor (Rosenkilde et al., 1999). […] This is important for the invention since the invention is aimed at small molecule, preferentially non-peptide compounds which will serve as inverse agonists against the receptor and most of these will conceivably as the majority of small molecule drugs in general in 7TM G protein coupled receptor bind in between the extracellular ends of the transmembrane segments.

[2] = test system: lean mice, mice with diet induced obesity, ob/ob obese mice; settings: cited from earlier work
NK1 receptor = NK1 receptor (Homo sapiens, UniProt P25103); test: Block of SP induced accumulation of IP in COS-7 cells transiently transfected with the NK1 receptor; format: cell-based; settings: data not shown
bombesin receptor 1 = settings: according to the literature; cited from earlier work

human ghrelin receptor, sequence (Q92847 whole entry): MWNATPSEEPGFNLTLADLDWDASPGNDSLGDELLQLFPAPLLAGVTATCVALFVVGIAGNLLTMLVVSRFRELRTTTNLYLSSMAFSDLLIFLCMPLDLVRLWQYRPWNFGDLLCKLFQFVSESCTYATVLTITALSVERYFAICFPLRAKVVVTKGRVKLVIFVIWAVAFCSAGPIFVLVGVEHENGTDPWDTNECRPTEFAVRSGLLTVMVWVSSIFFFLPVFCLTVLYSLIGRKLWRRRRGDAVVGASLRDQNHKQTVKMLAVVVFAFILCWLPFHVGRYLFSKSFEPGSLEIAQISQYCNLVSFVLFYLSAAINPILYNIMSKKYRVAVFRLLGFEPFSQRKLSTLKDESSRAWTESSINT
metal-ion site engineered ghrelin receptor (V:01 and V:05 substituted with His), sequence (Q92847 whole entry L209H/M213H): as the sequence (Q92847 whole entry) above, with L209H, M213H counted along it
NK1 receptor, sequence (P25103 whole entry, species assumed): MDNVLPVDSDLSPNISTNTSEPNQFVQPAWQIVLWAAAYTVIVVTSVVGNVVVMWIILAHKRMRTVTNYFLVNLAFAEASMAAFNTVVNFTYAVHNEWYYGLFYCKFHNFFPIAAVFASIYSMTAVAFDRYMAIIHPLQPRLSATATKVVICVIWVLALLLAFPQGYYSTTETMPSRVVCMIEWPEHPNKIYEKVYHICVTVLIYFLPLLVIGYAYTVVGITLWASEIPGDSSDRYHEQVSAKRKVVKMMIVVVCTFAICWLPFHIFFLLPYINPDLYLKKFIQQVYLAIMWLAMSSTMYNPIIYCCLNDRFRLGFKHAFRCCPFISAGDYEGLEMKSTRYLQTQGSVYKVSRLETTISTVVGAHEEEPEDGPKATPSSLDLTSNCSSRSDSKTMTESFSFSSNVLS

| Structure (SMILES) | IC50 (human ghrelin receptor) [µM] | efficacy as inverse agonist (in words) (human ghrelin receptor; absence of ghrelin) | IC50 ([1]; metal ion site engineered receptor, IP turnover, read-out: IC50 for inverse agonism on basal, constitutive signalling) [µM] | efficacy as inverse agonist (in words) ([1]; metal-ion site engineered receptor) | energy intake / food intake ([2]; lean mice, diet induced obesity mice, ob/ob obese mice, repeated administrations for six days) | rate of gastric emptying ([2]; mice) | body weight gain ([2]; repeated administrations, obese ob/ob mice (normal and obese mice)) | glycaemic control ([2]; repeated administrations, obese ob/ob mice) | antagonist potency on the NK1 receptor (in words) (NK1 receptor) | antagonist potency on the bombesin receptor (in words) (bombesin receptor 1) |
| --- | --- | --- | --- | --- | --- | --- | --- | --- | --- | --- |
| O=C(O)CCc1ccc(-c2ccc(Br)cc2)n1-c1cccc(C(F)(F)F)c1 [TM27810, 3-[5-(4-Bromo-phenyl)-1-(3-trifluoromethyl-phenyl)-1H-pyrrol-2-yl]-propionic acid] | 6.5 | high efficacy inverse agonist; also recorded: efficiently decreases the constitutive signalling activity |  |  |  |  |  |  |  |  |
| [Zn+2] [Zn(II)] | 160 ± 70 |  | 4.3 ± 0.2 | full inverse agonist |  |  |  |  |  |  |
| CC(C)C[C@H](NC(=O)[C@H](CC(C)C)NC(=O)[C@@H](Cc1c[nH]c2ccccc12)NC(=O)[C@H](Cc1ccccc1)NC(=O)[C@@H](Cc1c[nH]c2ccccc12)NC(=O)[C@H](CCC(N)=O)NC(=O)[C@@H](Cc1ccccc1)NC(=O)[C@@H]1CCCN1C(=O)[C@H](CCCCN)NC(=O)[C@@H]1CCCN1C(=O)[C@H](N)CCCNC(=N)N)C(N)=O [[D-Arg^1, D-Phe^5, D-Trp^7,9, Leu^11]-Substance P] (H-[dR]PKP[dF]Q[dW]F[dW]LL-NH2; N-terminus and C-terminus assumed) |  |  |  |  | decreased | reduced | decreased | improved | micromolar antagonist; also recorded: at micromolar concentrations also has effects | micromolar antagonist |
